Measured values taken from patent US20240246942A1, “KINASE INHIBITORS FOR THE TREATMENT OF NEURODEGENERATIVE DISEASES” (priority 2020, published 2024).

Assays:
Experiment in all cases: biochemical
[1] = target: T1, panel of 374 wild-type kinases (Homo sapiens, UniProt Q96GX5); details: MASTL, read-out: % Enzyme Activity (relative to DMSO controls)
T1 construct: purchased Reaction Biology Corporation
T1 sequence (Q96GX5 1-879): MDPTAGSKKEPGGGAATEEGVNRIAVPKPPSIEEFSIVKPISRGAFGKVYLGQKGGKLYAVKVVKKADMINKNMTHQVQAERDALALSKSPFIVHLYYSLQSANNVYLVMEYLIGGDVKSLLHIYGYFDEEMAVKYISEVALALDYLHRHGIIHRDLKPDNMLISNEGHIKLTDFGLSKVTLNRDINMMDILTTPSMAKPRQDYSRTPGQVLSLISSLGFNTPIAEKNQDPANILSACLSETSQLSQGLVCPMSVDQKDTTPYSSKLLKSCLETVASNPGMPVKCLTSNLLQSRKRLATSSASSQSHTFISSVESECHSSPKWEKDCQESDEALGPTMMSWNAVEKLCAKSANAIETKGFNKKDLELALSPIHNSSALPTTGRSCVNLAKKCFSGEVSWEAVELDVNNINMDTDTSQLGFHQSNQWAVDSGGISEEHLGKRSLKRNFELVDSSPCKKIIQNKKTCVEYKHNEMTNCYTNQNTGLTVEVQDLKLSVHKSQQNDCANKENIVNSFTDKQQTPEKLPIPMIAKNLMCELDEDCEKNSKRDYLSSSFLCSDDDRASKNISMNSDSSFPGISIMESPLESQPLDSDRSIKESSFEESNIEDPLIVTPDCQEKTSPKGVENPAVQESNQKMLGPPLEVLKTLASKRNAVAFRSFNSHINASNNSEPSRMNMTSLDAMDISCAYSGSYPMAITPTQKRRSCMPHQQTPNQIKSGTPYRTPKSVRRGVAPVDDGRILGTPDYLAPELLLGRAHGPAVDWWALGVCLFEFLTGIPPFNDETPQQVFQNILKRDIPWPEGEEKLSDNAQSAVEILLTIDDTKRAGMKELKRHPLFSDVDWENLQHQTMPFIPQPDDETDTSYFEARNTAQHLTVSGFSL

[2] = target: T2, panel of 374 wild-type kinases (Homo sapiens, UniProt Q9Y6M4); details: read-out: % Enzyme Activity (relative to DMSO controls), CK1g3
T2 construct: purchased Reaction Biology Corporation

[3] = target: T3, panel of 374 wild-type kinases (Homo sapiens, UniProt P78362); details: read-out: % Enzyme Activity (relative to DMSO controls), kinase SRPK2
T3 construct: purchased Reaction Biology Corporation

[4] = target: T4, panel of 374 wild-type kinases (Homo sapiens, UniProt P06239); details: read-out: % Enzyme Activity (relative to DMSO controls), LCK
T4 construct: purchased Reaction Biology Corporation

[5] = target: T5, panel of 374 wild-type kinases (Homo sapiens, UniProt P45984); details: JNK2, read-out: % Enzyme Activity (relative to DMSO controls)
T5 construct: purchased Reaction Biology Corporation

[6] = target: T6, panel of 374 wild-type kinases (Homo sapiens, UniProt O75716); details: read-out: % Enzyme Activity (relative to DMSO controls), kinase STK16
T6 construct: purchased Reaction Biology Corporation

[7] = target: T7, panel of 374 wild-type kinases (Homo sapiens, UniProt O00141); details: read-out: % Enzyme Activity (relative to DMSO controls), kinase SGK1
T7 construct: purchased Reaction Biology Corporation
T7 sequence (O00141 1-431): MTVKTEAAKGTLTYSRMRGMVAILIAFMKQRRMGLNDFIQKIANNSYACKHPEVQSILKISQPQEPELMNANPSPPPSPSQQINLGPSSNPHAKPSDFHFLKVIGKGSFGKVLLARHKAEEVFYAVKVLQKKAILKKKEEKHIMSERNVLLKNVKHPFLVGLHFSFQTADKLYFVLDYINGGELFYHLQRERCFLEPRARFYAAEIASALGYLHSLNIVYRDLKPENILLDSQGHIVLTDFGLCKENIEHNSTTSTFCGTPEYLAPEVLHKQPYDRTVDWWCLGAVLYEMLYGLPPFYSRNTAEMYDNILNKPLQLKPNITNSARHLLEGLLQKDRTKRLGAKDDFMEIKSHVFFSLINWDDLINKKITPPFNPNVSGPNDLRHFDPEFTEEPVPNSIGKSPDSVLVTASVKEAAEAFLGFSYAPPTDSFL

[8] = target: T8, panel of 374 wild-type kinases (Homo sapiens, UniProt P49760); details: read-out: % Enzyme Activity (relative to DMSO controls), CLK2
T8 construct: purchased Reaction Biology Corporation

[9] = target: T9, panel of 374 wild-type kinases (Homo sapiens, UniProt Q9H0K1); details: read-out: % Enzyme Activity (relative to DMSO controls), kinase SIK2
T9 construct: purchased Reaction Biology Corporation

[10] = target: T10, panel of 374 wild-type kinases (Homo sapiens, UniProt Q8TDX7); details: read-out: % Enzyme Activity (relative to DMSO controls), NEK7
T10 construct: purchased Reaction Biology Corporation

[11] = target: T11, panel of 374 wild-type kinases (Homo sapiens, UniProt Q9NY57); details: read-out: % Enzyme Activity (relative to DMSO controls), kinase STK32B/YANK2
T11 construct: purchased Reaction Biology Corporation

[12] = target: T12, panel of 374 wild-type kinases (Homo sapiens, UniProt Q9UQB9); details: read-out: % Enzyme Activity (relative to DMSO controls), Aurora C
T12 construct: purchased Reaction Biology Corporation
T12 sequence (Q9UQB9 1-309): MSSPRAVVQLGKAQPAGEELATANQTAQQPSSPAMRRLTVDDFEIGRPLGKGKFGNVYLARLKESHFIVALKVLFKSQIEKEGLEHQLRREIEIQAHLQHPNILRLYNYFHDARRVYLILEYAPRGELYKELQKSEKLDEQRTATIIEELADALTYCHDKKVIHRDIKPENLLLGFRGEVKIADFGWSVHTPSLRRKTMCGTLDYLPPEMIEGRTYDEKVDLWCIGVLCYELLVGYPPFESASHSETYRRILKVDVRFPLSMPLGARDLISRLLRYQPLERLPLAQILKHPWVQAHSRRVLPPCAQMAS

[13] = target: T13, panel of 374 wild-type kinases (Homo sapiens, UniProt Q6IQ55); details: read-out: % Enzyme Activity (relative to DMSO controls), kinase TTBK2
T13 construct: purchased Reaction Biology Corporation

[14] = target: T14, panel of 374 wild-type kinases (Homo sapiens, UniProt O00506); details: read-out: % Enzyme Activity (relative to DMSO controls), kinase STK25/YSK1
T14 construct: purchased Reaction Biology Corporation
T14 sequence (O00506 whole entry): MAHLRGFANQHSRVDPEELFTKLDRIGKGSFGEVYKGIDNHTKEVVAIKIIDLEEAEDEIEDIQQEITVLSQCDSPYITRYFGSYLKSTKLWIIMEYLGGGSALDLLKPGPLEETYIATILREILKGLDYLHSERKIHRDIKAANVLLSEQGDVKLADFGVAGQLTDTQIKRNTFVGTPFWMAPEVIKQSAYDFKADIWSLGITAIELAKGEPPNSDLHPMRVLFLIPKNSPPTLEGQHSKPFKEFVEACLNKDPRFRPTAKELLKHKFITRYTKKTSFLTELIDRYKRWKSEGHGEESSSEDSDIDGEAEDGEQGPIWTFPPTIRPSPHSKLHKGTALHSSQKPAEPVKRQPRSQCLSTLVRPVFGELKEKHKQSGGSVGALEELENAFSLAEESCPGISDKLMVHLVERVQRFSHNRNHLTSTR

T6 sequence (O75716 whole entry): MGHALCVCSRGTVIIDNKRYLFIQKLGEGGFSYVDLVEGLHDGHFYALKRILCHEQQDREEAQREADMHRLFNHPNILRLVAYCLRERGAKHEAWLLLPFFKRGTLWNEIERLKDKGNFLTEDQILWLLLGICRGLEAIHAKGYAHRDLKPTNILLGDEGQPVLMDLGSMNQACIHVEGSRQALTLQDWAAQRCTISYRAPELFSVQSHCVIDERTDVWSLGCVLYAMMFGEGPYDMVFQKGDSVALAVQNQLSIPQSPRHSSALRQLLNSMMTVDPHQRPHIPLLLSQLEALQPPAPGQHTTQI
T3 sequence (P78362 whole entry): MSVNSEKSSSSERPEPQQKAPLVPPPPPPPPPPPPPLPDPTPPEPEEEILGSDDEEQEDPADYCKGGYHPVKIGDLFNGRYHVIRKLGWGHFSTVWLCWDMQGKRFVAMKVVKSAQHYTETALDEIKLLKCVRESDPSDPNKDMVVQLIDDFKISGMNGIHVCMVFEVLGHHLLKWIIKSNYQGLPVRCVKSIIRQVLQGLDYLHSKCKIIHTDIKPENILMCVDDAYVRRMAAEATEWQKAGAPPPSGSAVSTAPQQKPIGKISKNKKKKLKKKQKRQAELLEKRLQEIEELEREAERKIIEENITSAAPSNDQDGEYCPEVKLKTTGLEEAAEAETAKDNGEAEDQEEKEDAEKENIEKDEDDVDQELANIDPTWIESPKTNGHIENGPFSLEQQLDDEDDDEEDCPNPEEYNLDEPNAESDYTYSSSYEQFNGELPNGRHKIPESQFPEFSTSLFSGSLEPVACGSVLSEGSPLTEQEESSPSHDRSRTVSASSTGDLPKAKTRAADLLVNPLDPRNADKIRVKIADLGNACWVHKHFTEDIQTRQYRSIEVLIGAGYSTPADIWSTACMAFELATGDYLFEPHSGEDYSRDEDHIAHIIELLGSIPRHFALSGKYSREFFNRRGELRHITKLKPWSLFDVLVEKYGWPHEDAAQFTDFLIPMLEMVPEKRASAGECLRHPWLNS
T13 sequence (Q6IQ55 whole entry): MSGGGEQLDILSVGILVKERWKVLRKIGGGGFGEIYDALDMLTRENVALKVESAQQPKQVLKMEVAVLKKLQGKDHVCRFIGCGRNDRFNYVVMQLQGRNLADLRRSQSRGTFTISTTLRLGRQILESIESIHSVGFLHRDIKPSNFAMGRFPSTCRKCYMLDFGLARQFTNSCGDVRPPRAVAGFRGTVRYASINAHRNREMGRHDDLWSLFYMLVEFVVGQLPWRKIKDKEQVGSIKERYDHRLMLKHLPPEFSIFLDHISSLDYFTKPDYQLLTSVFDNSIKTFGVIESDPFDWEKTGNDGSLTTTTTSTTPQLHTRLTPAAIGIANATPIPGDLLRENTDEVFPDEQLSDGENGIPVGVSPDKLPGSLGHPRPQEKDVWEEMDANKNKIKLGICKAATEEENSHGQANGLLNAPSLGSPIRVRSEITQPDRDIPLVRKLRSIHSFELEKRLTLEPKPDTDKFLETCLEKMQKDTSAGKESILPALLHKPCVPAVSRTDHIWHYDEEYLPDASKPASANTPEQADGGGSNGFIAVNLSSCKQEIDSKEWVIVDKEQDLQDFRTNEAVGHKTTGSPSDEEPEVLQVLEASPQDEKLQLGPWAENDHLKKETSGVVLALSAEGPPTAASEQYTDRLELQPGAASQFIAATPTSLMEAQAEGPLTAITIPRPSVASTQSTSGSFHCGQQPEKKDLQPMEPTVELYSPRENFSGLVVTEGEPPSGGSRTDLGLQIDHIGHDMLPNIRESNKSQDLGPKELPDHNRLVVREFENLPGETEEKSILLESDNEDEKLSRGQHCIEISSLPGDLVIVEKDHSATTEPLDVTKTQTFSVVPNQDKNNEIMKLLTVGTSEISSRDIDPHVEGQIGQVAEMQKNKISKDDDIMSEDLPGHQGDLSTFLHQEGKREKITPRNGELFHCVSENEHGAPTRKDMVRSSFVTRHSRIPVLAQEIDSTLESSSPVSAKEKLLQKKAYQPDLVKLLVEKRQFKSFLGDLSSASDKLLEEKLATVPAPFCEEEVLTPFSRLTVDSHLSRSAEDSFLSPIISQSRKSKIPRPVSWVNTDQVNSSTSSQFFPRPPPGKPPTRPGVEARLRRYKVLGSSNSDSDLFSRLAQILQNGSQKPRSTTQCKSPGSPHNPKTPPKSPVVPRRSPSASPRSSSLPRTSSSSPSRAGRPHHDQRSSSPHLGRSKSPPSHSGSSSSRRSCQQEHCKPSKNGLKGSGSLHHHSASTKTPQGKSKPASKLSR
T8 sequence (P49760 whole entry): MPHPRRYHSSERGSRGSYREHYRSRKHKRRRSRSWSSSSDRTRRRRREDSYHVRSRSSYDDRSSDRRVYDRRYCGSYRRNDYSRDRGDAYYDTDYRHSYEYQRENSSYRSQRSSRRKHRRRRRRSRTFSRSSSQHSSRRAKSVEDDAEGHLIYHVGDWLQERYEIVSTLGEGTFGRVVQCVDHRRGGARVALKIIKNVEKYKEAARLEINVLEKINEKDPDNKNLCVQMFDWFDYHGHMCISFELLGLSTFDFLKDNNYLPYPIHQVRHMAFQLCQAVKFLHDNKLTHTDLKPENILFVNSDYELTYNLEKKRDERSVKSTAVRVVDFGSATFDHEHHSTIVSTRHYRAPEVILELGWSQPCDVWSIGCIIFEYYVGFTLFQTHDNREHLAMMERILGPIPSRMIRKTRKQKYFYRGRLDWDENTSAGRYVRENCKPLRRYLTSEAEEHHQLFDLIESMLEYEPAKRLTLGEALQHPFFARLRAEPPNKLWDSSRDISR
T5 sequence (P45984 whole entry): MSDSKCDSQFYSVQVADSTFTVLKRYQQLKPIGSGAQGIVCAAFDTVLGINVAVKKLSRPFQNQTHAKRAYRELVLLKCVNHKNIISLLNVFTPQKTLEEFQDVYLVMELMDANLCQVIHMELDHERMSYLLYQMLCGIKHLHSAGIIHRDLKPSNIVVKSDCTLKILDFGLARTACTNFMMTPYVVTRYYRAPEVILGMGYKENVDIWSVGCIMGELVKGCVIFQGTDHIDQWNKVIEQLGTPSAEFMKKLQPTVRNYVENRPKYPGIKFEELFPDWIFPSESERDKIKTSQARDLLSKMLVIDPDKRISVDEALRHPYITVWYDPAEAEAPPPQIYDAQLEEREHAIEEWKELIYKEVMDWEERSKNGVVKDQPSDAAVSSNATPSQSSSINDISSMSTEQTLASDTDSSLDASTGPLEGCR
T4 sequence (P06239 whole entry): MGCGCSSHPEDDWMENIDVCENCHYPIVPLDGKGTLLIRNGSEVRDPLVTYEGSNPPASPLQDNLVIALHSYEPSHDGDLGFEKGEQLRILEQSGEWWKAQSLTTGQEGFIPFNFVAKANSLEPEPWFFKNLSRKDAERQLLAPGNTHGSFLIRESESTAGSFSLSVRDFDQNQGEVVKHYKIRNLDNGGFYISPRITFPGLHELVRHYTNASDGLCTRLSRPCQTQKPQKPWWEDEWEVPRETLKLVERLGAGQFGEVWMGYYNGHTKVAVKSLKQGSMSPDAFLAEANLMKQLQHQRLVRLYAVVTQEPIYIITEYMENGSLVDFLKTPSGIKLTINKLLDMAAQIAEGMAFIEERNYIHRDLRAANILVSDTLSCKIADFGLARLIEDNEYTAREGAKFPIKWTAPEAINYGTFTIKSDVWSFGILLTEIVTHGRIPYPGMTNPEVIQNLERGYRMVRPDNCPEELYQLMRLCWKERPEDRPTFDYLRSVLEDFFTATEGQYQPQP
T11 sequence (Q9NY57 whole entry): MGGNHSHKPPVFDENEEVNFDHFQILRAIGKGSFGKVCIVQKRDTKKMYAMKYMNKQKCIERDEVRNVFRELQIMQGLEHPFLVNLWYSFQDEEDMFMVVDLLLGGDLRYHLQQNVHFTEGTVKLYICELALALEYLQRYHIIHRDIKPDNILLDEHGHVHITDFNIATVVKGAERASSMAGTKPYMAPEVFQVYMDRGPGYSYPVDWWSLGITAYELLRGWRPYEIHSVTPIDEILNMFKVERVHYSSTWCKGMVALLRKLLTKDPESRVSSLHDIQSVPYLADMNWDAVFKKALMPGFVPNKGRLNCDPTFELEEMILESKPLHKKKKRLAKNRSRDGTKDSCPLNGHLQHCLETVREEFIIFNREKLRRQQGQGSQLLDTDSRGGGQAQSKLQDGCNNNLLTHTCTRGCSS
T2 sequence (Q9Y6M4 whole entry): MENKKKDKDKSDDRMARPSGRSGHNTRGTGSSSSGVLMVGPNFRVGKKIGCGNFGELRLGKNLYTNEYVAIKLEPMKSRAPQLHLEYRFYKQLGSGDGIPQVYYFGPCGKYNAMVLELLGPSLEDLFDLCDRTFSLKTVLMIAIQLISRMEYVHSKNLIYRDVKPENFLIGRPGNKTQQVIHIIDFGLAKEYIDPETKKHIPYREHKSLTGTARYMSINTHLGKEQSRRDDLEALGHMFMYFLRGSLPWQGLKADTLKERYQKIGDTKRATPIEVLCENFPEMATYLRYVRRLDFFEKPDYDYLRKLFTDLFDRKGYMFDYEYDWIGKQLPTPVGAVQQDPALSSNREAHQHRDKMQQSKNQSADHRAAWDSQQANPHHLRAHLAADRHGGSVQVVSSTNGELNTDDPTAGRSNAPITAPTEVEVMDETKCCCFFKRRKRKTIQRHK

SMILES | remaining activity at 5 µM [1] [%] | remaining activity at 5 µM [2] [%] | remaining activity at 5 µM [3] [%] | remaining activity at 5 µM [4] [%] | remaining activity at 5 µM [5] [%] | remaining activity at 5 µM [6] [%] | remaining activity at 5 µM [7] [%] | remaining activity at 5 µM [8] [%] | remaining activity at 5 µM [9] [%] | remaining activity at 5 µM [10] [%] | remaining activity at 5 µM [11] [%] | remaining activity at 5 µM [12] [%] | remaining activity at 5 µM [13] [%] | remaining activity at 5 µM [14] [%] | also measured
O=C(Nc1cnn(-c2csc(C(=O)NC3COC3)c2)c1)Nc1ccccc1Cl [Compound 17, 4-(4-(3-(2-chlorophenyl)ureido)-1H-pyrazol-1-yl)-N-(oxetan-3-yl)thiophene-2-carboxamide] | 96.7 | 103 | 95.6 | 99.1 | 34.1 | 98.6 | 93.7 | 103 | 97 | 102 | 122 | 104 | 107 | 106 | 
O=C(Nc1cnn(-c2csc(C(=O)NC3COC3)c2)c1)Nc1c(F)cccc1Cl [Compound 25, 4-(4-(3-(2-chloro-6-fluorophenyl)ureido)-1H-pyrazol-1-yl)-N-(oxetan-3-yl)thiophene-2-carboxamide] | 93.7 | 92.6 | 94 | 94.2 | 22.7 | 107 | 95.4 | 112 | 95.8 | 88.1 | 103 | 58.5 | 104 | 96.1 | 
Cc1sc(C(=O)NC2COC2)cc1-n1cc(NC(=O)Nc2c(F)cccc2Cl)cn1 [Compound 27, 4-(4-(3-(2-chloro-6-fluorophenyl)ureido)-1H-pyrazol-1-yl)-5-methyl-N-(oxetan-3-yl)thiophene-2-carboxamide] |  |  |  |  |  |  |  |  |  |  |  |  |  |  | remaining activity at 10 µM ([1]; 10 uM): 110%; remaining activity at 10 µM ([2]; 10 uM): 91.3%; remaining activity at 10 µM ([3]; 10 uM): 114%; remaining activity at 10 µM ([4]; 10 uM): 46.5%; remaining activity at 10 µM ([5]; 10 uM): 51.9%; remaining activity at 10 µM ([6]; 10 uM): 94.4%; remaining activity at 10 µM ([7]; 10 uM): 115%; remaining activity at 10 µM ([8]; 10 uM): 105%; remaining activity at 10 µM ([9]; 10 uM): 89.8%; remaining activity at 10 µM ([10]; 10 uM): 100%; remaining activity at 10 µM ([11]; 10 uM): 89.8%; remaining activity at 10 µM ([12]; 10 uM): 104%; remaining activity at 10 µM ([13]; 10 uM): 97.6%; remaining activity at 10 µM ([14]; 10 uM): 70.5%
